Consider seven molecules from ChEMBL document CHEMBL4312031, “Discovery of candesartan cilexetic as a novel neddylation inhibitor for suppressing tumor growth” (Eur J Med Chem, 2020).

Data set [1] concerns the target T1, NEDD8/Cullin-1 (Homo sapiens) (UniProt Q13616+Q15843). Kind of data set: Inhibition of Nedd8-cullin1 (unknown origin) adduct formation assessed as decrease in cullin1 neddylation at 50 uM preincubated for 10 mins followed by ATP addition and measured after 30 mins by immunoblot analysis. It counts as protein assay. For orientation: In western blotting, separated proteins are transferred to a membrane and probed.

In data set [2] the target is T1, NEDD8/Cullin-1 (Homo sapiens). Put plainly: Inhibition of Nedd8-cullin1 adduct formation in human A549 cells assessed as decrease in cullin1 neddylation at 100 uM incubated for 6 to 12 hrs by Western blot analysis. It counts as cell-based.
The target is the same in data set [3]. Put plainly: Inhibition of Nedd8-cullin1 adduct formation in human A549 cells assessed as decrease in cullin1 neddylation at 60 to 80 uM measured after 6 hrs by Western blot analysis. In kind it is cell-based.
Target sequence in this assay (Q13616 whole entry, looked up): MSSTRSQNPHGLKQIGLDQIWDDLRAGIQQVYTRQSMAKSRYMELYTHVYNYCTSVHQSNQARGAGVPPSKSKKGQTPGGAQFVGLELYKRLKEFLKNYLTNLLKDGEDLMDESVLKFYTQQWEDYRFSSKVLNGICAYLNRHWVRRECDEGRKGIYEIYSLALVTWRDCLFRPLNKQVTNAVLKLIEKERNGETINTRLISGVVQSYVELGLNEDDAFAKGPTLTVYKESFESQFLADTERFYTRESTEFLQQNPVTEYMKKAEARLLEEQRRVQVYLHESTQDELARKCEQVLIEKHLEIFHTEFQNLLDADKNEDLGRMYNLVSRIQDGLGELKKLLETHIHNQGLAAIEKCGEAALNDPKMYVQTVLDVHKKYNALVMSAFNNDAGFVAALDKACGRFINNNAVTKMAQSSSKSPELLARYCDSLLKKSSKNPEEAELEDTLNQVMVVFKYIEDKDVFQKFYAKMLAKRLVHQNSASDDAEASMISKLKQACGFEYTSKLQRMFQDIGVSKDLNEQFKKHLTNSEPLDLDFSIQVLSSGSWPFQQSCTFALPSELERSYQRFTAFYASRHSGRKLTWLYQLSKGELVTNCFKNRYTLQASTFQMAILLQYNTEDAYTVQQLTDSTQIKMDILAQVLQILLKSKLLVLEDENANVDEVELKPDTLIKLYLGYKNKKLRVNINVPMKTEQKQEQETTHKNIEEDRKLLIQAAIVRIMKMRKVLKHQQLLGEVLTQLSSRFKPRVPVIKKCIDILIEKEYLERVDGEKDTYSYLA
Target sequence in this assay (Q15843 whole entry, looked up): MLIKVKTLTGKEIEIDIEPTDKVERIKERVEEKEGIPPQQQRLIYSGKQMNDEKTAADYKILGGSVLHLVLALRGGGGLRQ
Data set [4] shares this target. Put plainly: Inhibition of Nedd8-cullin1 adduct formation in human A549 cells assessed as decrease in cullin1 neddylation at 50 uM measured after 6 hrs by Western blot analysis. It counts as cell-based.
Target sequence in this assay (Q13616 whole entry, looked up): as the sequence (Q13616 whole entry, looked up) above
Target sequence in this assay (Q15843 whole entry, looked up): as the sequence (Q15843 whole entry, looked up) above
For data set [5] the target is unchanged. Put plainly: Inhibition of Nedd8-cullin1 adduct formation in human A549 cells assessed as decrease in cullin1 neddylation at 75 uM measured after 6 hrs by Western blot analysis. In kind it is cell-based.
Target sequence in this assay (Q13616 whole entry, looked up): as the sequence (Q13616 whole entry, looked up) above
Target sequence in this assay (Q15843 whole entry, looked up): as the sequence (Q15843 whole entry, looked up) above
Data set [6] is described as follows: Toxicity in nude mouse xenografted with human A549 cells assessed as effect on body weight at 30 to 60 mg/kg, ip qd measured every 2 days. It counts as organism-based. The settings on record: in vivo, 48 h. In general terms: Xenograft models place foreign cells or tissue in a host animal.
The target of another data set is T2, NEDD8 activating enzyme (Homo sapiens, UniProt Q8TBC4).
T2 sequence (Q8TBC4 whole entry): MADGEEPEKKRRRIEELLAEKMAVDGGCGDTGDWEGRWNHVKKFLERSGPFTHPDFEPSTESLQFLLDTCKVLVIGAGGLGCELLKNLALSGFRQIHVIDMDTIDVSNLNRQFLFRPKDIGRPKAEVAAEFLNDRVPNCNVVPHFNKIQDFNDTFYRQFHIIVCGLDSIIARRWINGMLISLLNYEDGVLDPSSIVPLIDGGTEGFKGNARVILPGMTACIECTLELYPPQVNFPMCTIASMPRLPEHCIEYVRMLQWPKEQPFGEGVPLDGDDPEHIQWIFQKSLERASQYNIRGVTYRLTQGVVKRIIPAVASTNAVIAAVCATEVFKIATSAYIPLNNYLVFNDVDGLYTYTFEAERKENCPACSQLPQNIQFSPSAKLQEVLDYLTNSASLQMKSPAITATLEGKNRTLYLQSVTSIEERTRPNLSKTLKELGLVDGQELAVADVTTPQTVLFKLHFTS
T2 sequence (Q13564 whole entry): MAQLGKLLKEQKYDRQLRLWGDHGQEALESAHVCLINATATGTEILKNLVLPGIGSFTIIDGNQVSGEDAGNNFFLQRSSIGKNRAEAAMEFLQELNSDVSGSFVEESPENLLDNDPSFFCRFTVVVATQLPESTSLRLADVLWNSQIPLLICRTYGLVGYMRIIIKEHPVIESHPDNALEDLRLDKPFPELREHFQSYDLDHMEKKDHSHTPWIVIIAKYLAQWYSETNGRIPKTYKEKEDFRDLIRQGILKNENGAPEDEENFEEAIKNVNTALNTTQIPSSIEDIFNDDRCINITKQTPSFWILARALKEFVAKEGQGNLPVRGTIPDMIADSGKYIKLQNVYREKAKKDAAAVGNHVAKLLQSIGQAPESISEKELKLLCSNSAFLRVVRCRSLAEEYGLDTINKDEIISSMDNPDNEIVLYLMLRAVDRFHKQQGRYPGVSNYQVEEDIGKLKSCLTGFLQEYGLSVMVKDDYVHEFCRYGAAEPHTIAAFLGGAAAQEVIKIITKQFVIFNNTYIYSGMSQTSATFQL
Put plainly: Binding affinity to biotin-labeled GST-tagged NAE (unknown origin) incubated for 1 hr by SPR assay. It counts as protein-complex assay.

The test system of data set [7] is NCI-H1299. Kind of data set: Antiproliferative activity against human H1299 cells measured after 48 hrs by CCK8 assay. In kind it is functional, cell-based. The settings on record: NCI-H1299, 48 h. (In general: Formazan colour is commonly taken as a measure of viable cells.)
Data set [8] has as its system MGC-803. Kind of data set: Antiproliferative activity against human MGC803 cells measured after 48 hrs by CCK8 assay. The settings on record: MGC-803, 48 h. In kind it is functional, cell-based.
For data set [9], the target named is T1, NEDD8/Cullin-1 (Homo sapiens). Put plainly: Inhibition of Nedd8-cullin1 (unknown origin) adduct formation assessed as decrease in cullin1 neddylation at 10 uM preincubated for 10 mins followed by ATP addition and measured after 30 mins by immunoblot analysis. It counts as protein assay.
Target sequence in this assay (Q13616 whole entry, looked up): as the sequence (Q13616 whole entry, looked up) above
Target sequence in this assay (Q15843 whole entry, looked up): as the sequence (Q15843 whole entry, looked up) above
Data set [10] has as its system A549. Kind of data set: Antitumor activity against human A549 cells xenografted in nude mouse assessed as decrease in tumor weight at 60 mg/kg, ip qd measured after 22 days. It counts as functional, organism-based.
Data set [11] concerns MCF7. Put plainly: Antiproliferative activity against human MCF7 cells measured after 48 hrs by CCK8 assay. In kind it is functional, cell-based. The settings on record: MCF7, 48 h.
For data set [12], the system named is HepG2. Kind of data set: Antiproliferative activity against human HepG2 cells measured after 72 to 96 hrs by CCK8 assay. In kind it is functional, cell-based.
Data set [13] concerns T47D. Kind of data set: Antiproliferative activity against human T47D cells measured after 48 hrs by CCK8 assay. In kind it is functional, cell-based.
Data set [14] relates to Huh-7. Put plainly: Antiproliferative activity against human HuH7 cells measured after 72 to 96 hrs by CCK8 assay. In kind it is functional, cell-based.
Data set [15] concerns MGC-803. Kind of data set: Antiproliferative activity against human MGC803 cells measured after 72 to 96 hrs by CCK8 assay. It counts as functional, cell-based.
In data set [16] the test system is Huh-7. Kind of data set: Antiproliferative activity against human HuH7 cells measured after 48 hrs by CCK8 assay. It counts as functional, cell-based. The note with it: Huh-7, 48 h.
Data set [17] relates to EKVX. Kind of data set: Antiproliferative activity against human EKVX cells measured after 48 hrs by CCK8 assay. In kind it is functional, cell-based.
The test system of data set [18] is PLC. Put plainly: Antiproliferative activity against human PLC cells measured after 48 hrs by CCK8 assay. It counts as functional, cell-based.
Data set [19] has as its system MKN-45. Kind of data set: Antiproliferative activity against human MKN45 cells measured after 72 to 96 hrs by CCK8 assay. It counts as functional, cell-based.
Data set [20] is described as follows: Toxicity in nude mouse xenografted with human A549 cells assessed as effect on body weight at 60 mg/kg, ip qd measured every 2 days. It counts as organism-based. The note with it: in vivo, 48 h.
Data set [21] has as its system T47D. Put plainly: Antiproliferative activity against human T47D cells measured after 72 to 96 hrs by CCK8 assay. In kind it is functional, cell-based.
Data set [22] deals with MCF7. Put plainly: Antiproliferative activity against human MCF7 cells measured after 72 to 96 hrs by CCK8 assay. It counts as functional, cell-based.
In data set [23] the test system is HepG2. Put plainly: Antiproliferative activity against human HepG2 cells measured after 48 hrs by CCK8 assay. The settings on record: HepG2, 48 h. In kind it is functional, cell-based.
Data set [24] relates to EKVX. Put plainly: Antiproliferative activity against human EKVX cells measured after 72 to 96 hrs by CCK8 assay. In kind it is functional, cell-based.
In data set [25] the test system is A549. Kind of data set: Antitumor activity against human A549 cells xenografted in nude mouse assessed as decrease in tumor size at 60 mg/kg, ip qd measured after 22 days. In kind it is functional, organism-based.
Data set [26] concerns NCI-H1299. Kind of data set: Antiproliferative activity against human H1299 cells measured after 72 to 96 hrs by CCK8 assay. In kind it is functional, cell-based.
Data set [27] relates to PLC. Kind of data set: Antiproliferative activity against human PLC cells measured after 72 to 96 hrs by CCK8 assay. In kind it is functional, cell-based.
Data set [28] relates to MKN-45. Kind of data set: Antiproliferative activity against human MKN45 cells measured after 48 hrs by CCK8 assay. It counts as functional, cell-based. The note with it: MKN-45, 48 h.

One may read the pKd as the negative decadic logarithm of the Kd, by convention in mol/L. The pIC50 is −log10 of the IC50, conventionally taken in molar units. Read a high pIC50 as a low IC50.

pIC50, pKd: −log10 of the molar value. Active and inactive are the calls of the source. No cut-off for these calls is given here. Where only a bound is given, the exact number is not on record here.

As for `CCCCCCCCCCCCCCCC[n+]1ccccc1`, the inhibition result in data set [1] was “Active”. Also, the inhibition result in data set [2] was “inactive”.

Regarding `CN1CCN(CCCN2c3ccccc3Sc3ccc(C(F)(F)F)cc32)CC1`, the inhibition result in data set [1] is “Active”. Moreover, the inhibition entry in data set [2] was “inactive”.

Regarding `Clc1ccc(CCNC2CCN(Cc3ccccc3)CC2)c(Cl)c1`, the inhibition entry in [3] was “Active”.

With `O=C1c2c(O)ccc(O)c2C(=O)c2c(NCCNCCO)ccc(NCCNCCO)c21`, the inhibition entry in data set [4] is “inactive”. Besides, the inhibition entry in data set [5] is “Active”.

As for `CCOc1nc2cccc(C(=O)OC(C)OC(=O)OC3CCCCC3)c2n1Cc1ccc(-c2ccccc2-c2nnn[nH]2)cc1` (stereo not drawn) [CANDESARTAN CILEXETIL], the Activity result in data set [6] is listed as “Non-Toxic”. Besides, at NEDD8 activating enzyme, the pKd is 3.71.

As for `NS(=O)(=O)OC[C@@H]1C[C@@H](n2ccc3c(N[C@H]4CCc5ccccc54)ncnc32)C[C@@H]1O` [PEVONEDISTAT], the pIC50 in the data set on NCI-H1299 [7] was less than 5.00; in the data set on MGC-803 [8], less than 5.00; with MCF7 [11], less than 5.00; in the data set on HepG2 [12], 5.92 to 6.52; with T47D [13], less than 5.00; in the data set on Huh-7 [14] it was 5.92 to 6.52. For the same molecule, the pIC50 was 5.92 to 6.52 in the data set with MGC-803 [15]; less than 5.00 in the data set with Huh-7 [16]; less than 5.00 in the data set with EKVX [17]; less than 5.00 with PLC [18]; 5.92 to 6.52 with MKN-45 [19]; 5.92 to 6.52 with T47D [21]. The pIC50 in the data set with MCF7 [22] is 5.92 to 6.52; in the data set with HepG2 [23], less than 5.00; with EKVX [24], 5.92 to 6.52; with NCI-H1299 [26], 5.92 to 6.52; with PLC [27], 5.92 to 6.52; with MKN-45 [28], less than 5.00. Also, the inhibition result in data set [9] was “Active”. Also, the result with A549 [10] and in the data set with A549 [25] was Active. In addition, in data set [20], the Activity result was “Non-Toxic”.

Take BISMUTH SUBCITRATE POTASSIUM: in [1], the inhibition result was “Active”. Moreover, the inhibition result in data set [2] is “inactive”.
